Measured values reported in patent US20070129281A1, “Pharmaceutical compounds” (priority 2003, published 2007).
“Also recorded” adds a separate entry of the source.

Target: T1, PTP1B catalytic domain (residues 1-321) (Homo sapiens, UniProt P18031)
T1 construct: crystallisation of the catalytic domain of PTP1B (residues 1-321) were based on literature conditions; made in house; host or cells: E. coli BL21(DE3), vector pET19b
T1 sequence (P18031 1-321): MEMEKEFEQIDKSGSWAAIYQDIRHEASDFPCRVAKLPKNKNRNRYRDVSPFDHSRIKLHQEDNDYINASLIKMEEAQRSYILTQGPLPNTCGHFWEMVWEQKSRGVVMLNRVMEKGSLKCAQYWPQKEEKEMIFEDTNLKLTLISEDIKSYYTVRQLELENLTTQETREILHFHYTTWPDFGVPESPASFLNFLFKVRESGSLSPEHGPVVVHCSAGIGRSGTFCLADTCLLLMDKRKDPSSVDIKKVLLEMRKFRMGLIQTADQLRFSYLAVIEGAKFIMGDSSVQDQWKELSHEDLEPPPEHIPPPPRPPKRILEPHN
Test: Crystal soaking of PTP1B crystals with X-ray structure determination (oxidation state of Cys215)
Settings: for State of the catalytic Cys215 / active site of PTP1B in the crystal after soaking (X-ray data): crystals soaked about 24 hours in mother liquor without DTT containing 100 mM compound
Method: For overnight soaking experiments crystals were transferred into a standard mother liquor containing 16% PEG 4000, 0.1 M HEPES (pH 7.5), 0.2 M magnesium acetate, 10 mM DTT and the compound of interest (See Table 3 below).
All data were collected at 100 K. Data sets of sulfenic- sulfinic- and sulfonic acid PTP1B derivatives were automatically collected on a Jupiter140 CCD detector mounted on a RU3HR rotating anode generator equipped with an ACTOR sample-changing robot (RigakuMSC, The Woodlands Tex., USA). They were processed and scaled using D*TREK^21 and converted to structure factors using programs from the CCP4 suite^22.
Oxidation of Cys215 to the sulfenyl-amide derivative was carried out by soaking crystals for approximately 24 hours in mother liquor without DTT, but containing 100 mM 2-phenyl-isoxazolidine-3,5-dione. Data were collected at station 14.1 (SRS, Daresbury) and processed and scaled using MOSFLM/SCALA^22.
Reversibility of the sulfenyl-amide derivative was checked by first soaking two crystals in 100 mM 2-phenyl-isoxazolidine-3,5-dione for 24 hours.
All results were evaluated using the graphics programs QUANTA (Accelrys, San Diego Calif., USA) and Astexviewer™^23. Initial refinement was always carried out using the CCP4-based Astex automatic refinement scripts, followed by rounds of positional and B-factor refinement with REFMAC5^22 alternated with manual rebuilding steps using QUANTA.

Row | Structure (SMILES) | State of the catalytic Cys215 / active site of PTP1B in the crystal after soaking (X-ray data) | State of the catalytic Cys215 / active site of PTP1B in the crystal after soaking (X-ray data) (listed as 2-Phenyl-isoxazolidine-3,5-dione) | Active site conformation of sulfenyl-amide PTP1B crystal after back soaking (reversibility, X-ray data) (back soaking 24 hours in mother liquor containing 20 mM reduced glutathione, after a 100 mM 2-phenyl-isoxazolidine-3,5-dione soak)
1 | O=C1CC(=O)N(c2ccccc2)O1 [2-phenyl-isoxazolidine-3,5-dione] | Sulfenyl-amide formation was confirmed | confirmed the formation of the sulfenyl-amide bond | –
2 | N[C@@H](CCC(=O)N[C@@H](CS)C(=O)NCC(=O)O)C(=O)O [reduced glutathione, glutathione] | – | – | entire active site back in its native conformation; also recorded: confirmed the active site in its native conformation
